Values belong to the molecule of their own block, whether it stands above or below them.
What was measured:
[1] = target: T1, BRD4 long (Homo sapiens, UniProt O60885); experiment: BRD4 (long) degradation assay, Western blotting; type: cell-based
T1 construct: endogenous in cells; host or cells: HEK293T
Procedure: (§1) C33A cells were purchased from American Type Culture Collection (ATCC) and were cultured in Dulbecco's Modified Eagle Medium (DMEM) containing 10% (v/v) fetal bovine serum (FBS) and maintained at 37° C. with 5% CO2. 22RV1 cells were purchased from the ATCC and were cultured in RPMI-1640 Medium containing 10% (v/v) FBS and maintained at 37° C. with 5% CO2. HEK293T cells were obtained from the UC Berkeley Cell Culture Facility and were cultured in DMEM containing 10% (v/v) FBS and maintained at 37° C. with 5% CO2. K562 cells were obtained from the UC Berkeley Cell Culture Facility and were cultured in Iscove's Modified Dulbecco's Medium (IMDM) containing 10% (v/v) FBS and maintained at 37° C. with 5% CO2. MV-4-11 cells were obtained from the ATCC and were cultured in IMDM containing 10% (v/v) FBS and maintained at 37° C. with 5% CO2. A549 cells were obtained from the ATCC and were cultured in F-12K Medium containing 10% (v/v) FBS and maintained at 37° C. with 5% CO2. Mino cells were obtained from the ATCC and were cultured in RPMI-1640 Medium containing 10% (v/v) FBS and maintained at 37° C. with 5% CO2. LNCaP cells were obtained from the ATCC and were cultured in RPMI-1640 Medium containing 10% (v/v) FBS and maintained at 37° C. with 5% CO2. Unless otherwise specified, all cell culture materials were purchased from Gibco. It is not known whether HEK293T cells are from male or female origin.
(§2) Cells were washed twice with cold PBS, scraped, and pelleted by centrifugation (700 g, 5 min, 4° C.). Pellets were resuspended in PBS, sonicated, clarified by centrifugation (12,000 g, 10 min, 4° C.), and lysate was transferred to new low-adhesion microcentrifuge tubes. Proteome concentrations were determined using BCA assay and lysate was diluted to appropriate working concentrations.
(§3) Proteins were resolved by SDS/PAGE and transferred to nitrocellulose membranes using the Trans-Blot Turbo transfer system (Bio-Rad). Membranes were blocked with 5% BSA in Tris-buffered saline containing Tween 20 (TBS-T) solution for 30 min at RT, washed in TBS-T, and probed with primary antibody diluted in recommended diluent per manufacturer overnight at 4° C. After 3 washes with TBS-T, the membranes were incubated in the dark with IR680- or IR800-conjugated secondary antibodies at 1:10,000 dilution in 5% BSA in TBS-T at RT for 1 h. After 3 additional washes with TBST, blots were visualized using an Odyssey Li-Cor fluorescent scanner. The membranes were stripped using ReBlot Plus Strong Antibody Stripping Solution (EMD Millipore) when additional primary antibody incubations were performed. Antibodies used in this study were CDK4 (Abcam ab108357), Vinculin (Abcam ab129002), GAPDH (Cell Signaling Technology 14C10), RNF126 (Santa Cruz Biotechnology sc-376005), BRD4 (Abcam ab128874), Beta Actin (Cell Signaling Technology 13E5), PDE5 (Abcam ab259945), AR-V7 (Abcam ab273500), c-Abl (Santa Cruz Biotechnology sc-23), SMARCA2 (Abcam ab240648), LRRK2 (Abcam ab133474), BTK (Cell Signaling Technology D3H5), Androgen Receptor (Abcam ab133273).

[2] = target: T2, BRD4 short (Homo sapiens, UniProt O60885); experiment: BRD4 (short) degradation assay, Western blotting; type: cell-based
T2 construct: endogenous in cells; host or cells: HEK293T
Procedure: as §1, §2, §3

[3] = first value of cell (long/short)
[4] = second value of cell (long/short)
[5] = first value of cell, range with lower bound in nM and upper bound in μM

SMILES: Cc1sc2c(c1C)C(c1ccc(Cl)cc1)=N[C@@H](CC(=O)N[C@H]1C[C@H](NC(=O)/C=C/C(=O)c3cc(Cl)ccc3Cl)C1)c1nnc(C)n1-2 [Compound 288, (E)-N-((1S,3r)-3-(2-((S)-4-(4-chlorophenyl)-2,3,9-trimethyl-6H-thieno[3,2-f][1,2,4]triazolo[4,3-a][1,4]diazepin-6-yl)acetamido)cyclobutyl)-4-(2,5-dichlorophenyl)-4-oxobut-2-enamide]
- DC50 [1, 5]: 100 to 1000 nM
- DC50 ([2]; second value of cell, range with lower bound in nM and upper bound in μM): 100 to 1000 nM

SMILES: COc1ccc(C(=O)/C(C)=C/C(=O)N2CCN(C(=O)C[C@@H]3N=C(c4ccc(Cl)cc4)c4c(sc(C)c4C)-n4c(C)nnc43)CC2)cc1 [Compound 139, (S,E)-4-(4-(2-(4-(4-chlorophenyl)-2,3,9-trimethyl-6H-thieno[3,2-f][1,2,4]triazolo[4,3-a][1,4]diazepin-6-yl)acetyl)piperazin-1-yl)-1-(4-methoxyphenyl)-2-methylbut-2-ene-1,4-dione]
- DC50 [1, 3]: > 1000 nM
- DC50 [2, 4]: > 1000 nM

SMILES: COc1ccc(C(=O)/C=C\C(=O)N2CCN(C(=O)C[C@@H]3N=C(c4ccc(Cl)cc4)c4c(sc(C)c4C)-n4c(C)nnc43)CC2)cc1 [Compound 232, (S,Z)-1-(4-(2-(4-(4-chlorophenyl)-2,3,9-trimethyl-6H-thieno[3,2-f][1,2,4]triazolo[4,3-a][1,4]diazepin-6-yl)acetyl)piperazin-1-yl)-4-(4-methoxyphenyl)but-2-ene-1,4-dione]
- DC50 [1, 3]: 10 to 100 nM
- DC50 [2, 4]: 10 to 100 nM

SMILES: COc1ccc(C(=O)/C=C/C(=O)N2CCN(C(=O)C[C@@H]3N=C(c4ccc(Cl)cc4)c4c(sc(C)c4C)-n4c(C)nnc43)CC23CC3)cc1 [Compound 221, (S,E)-1-(7-(2-(4-(4-chlorophenyl)-2,3,9-trimethyl-6H-thieno[3,2-f][1,2,4]triazolo[4,3-a][1,4]diazepin-6-yl)acetyl)-4,7-diazaspiro[2.5]octan-4-yl)-4-(4-methoxyphenyl)but-2-ene-1,4-dione]
- DC50 [1, 3]: 10 to 100 nM
- DC50 [2, 4]: 10 to 100 nM

SMILES: Cc1sc2c(c1C)C(c1ccc(Cl)cc1)=N[C@@H](CC(=O)N[C@H]1C[C@H](NC(=O)/C=C/C(=O)C(C)(C)C)C1)c1nnc(C)n1-2 [Compound 278, (E)-N-((1S,3r)-3-(2-((S)-4-(4-chlorophenyl)-2,3,9-trimethyl-6H-thieno[3,2-f][1,2,4]triazolo[4,3-a][1,4]diazepin-6-yl)acetamido)cyclobutyl)-5,5-dimethyl-4-oxohex-2-enamide]
- DC50 [1, 3]: 10 to 100 nM
- DC50 [2, 4]: 10 to 100 nM

SMILES: Cc1sc2c(c1C)C(c1ccc(Cl)cc1)=N[C@@H](CC(=O)N[C@H]1C[C@H](NC(=O)/C=C/C(=O)c3ccc(=O)n(C)c3)C1)c1nnc(C)n1-2 [Compound 244, (E)-N-((1S,3r)-3-(2-((S)-4-(4-chlorophenyl)-2,3,9-trimethyl-6H-thieno[3,2-f][1,2,4]triazolo[4,3-a][1,4]diazepin-6-yl)acetamido)cyclobutyl)-4-(1-methyl-6-oxo-1,6-dihydropyridin-3-yl)-4-oxobut-2-enamide]
- DC50 [1, 5]: 100 to 1000 nM
- DC50 [2, 4]: 1000 nM

SMILES: Cc1sc2c(c1C)C(c1ccc(Cl)cc1)=N[C@@H](CC(=O)N[C@H]1C[C@H](NC(=O)/C=C/C(=O)N3CC4(COC4)C3)C1)c1nnc(C)n1-2 [Compound 254, (E)-N-((1S,3r)-3-(2-((S)-4-(4-chlorophenyl)-2,3,9-trimethyl-6H-thieno[3,2-f][1,2,4]triazolo[4,3-a][1,4]diazepin-6-yl)acetamido)cyclobutyl)-4-oxo-4-(2-oxa-6-azaspiro[3.3]heptan-6-yl)but-2-enamide]
- DC50 [2, 4]: > 5000 nM

Now from value to molecule:

- DC50 [1, 3]: 8 nM
- DC50 [2, 4]: 12 nM
SMILES: COc1ccc(C(=O)/C=C/C(=O)N[C@H]2C[C@H](NC(=O)C[C@@H]3N=C(c4ccc(Cl)cc4)c4c(sc(C)c4C)-n4c(C)nnc43)C2)cc1 [Compound 223, (E)-N-((1S,3r)-3-(2-((S)-4-(4-chlorophenyl)-2,3,9-trimethyl-6H-thieno[3,2-f][1,2,4]triazolo[4,3-a][1,4]diazepin-6-yl)acetamido)cyclobutyl)-4-(4-methoxyphenyl)-4-oxobut-2-enamide]

- DC50 [1, 3]: < 100 nM
- DC50 [2, 4]: < 100 nM
SMILES: COc1cc(F)ccc1C(=O)/C=C/C(=O)N1CCN(C(=O)C[C@@H]2N=C(c3ccc(Cl)cc3)c3c(sc(C)c3C)-n3c(C)nnc32)CC1 [Compound 235, (S,E)-1-(4-(2-(4-(4-chlorophenyl)-2,3,9-trimethyl-6H-thieno[3,2-f][1,2,4]triazolo[4,3-a][1,4]diazepin-6-yl)acetyl)piperazin-1-yl)-4-(4-fluoro-2-methoxyphenyl)but-2-ene-1,4-dione]

- DC50 [1, 3]: 10 to 100 nM
- DC50 [2, 4]: 10 to 100 nM
SMILES: COc1ccc(C(=O)/C=C/C(=O)N[C@H]2C[C@@H](NC(=O)C[C@@H]3N=C(c4ccc(Cl)cc4)c4c(sc(C)c4C)-n4c(C)nnc43)C2)cn1 [Compound 206, (E)-N-((1R,3s)-3-(2-((S)-4-(4-chlorophenyl)-2,3,9-trimethyl-6H-thieno[3,2-f][1,2,4]triazolo[4,3-a][1,4]diazepin-6-yl)acetamido)cyclobutyl)-4-(6-methoxypyridin-3-yl)-4-oxobut-2-enamide]

- DC50 [1, 3]: 10 to 100 nM
- DC50 [2, 4]: 10 to 100 nM
SMILES: Cc1sc2c(c1C)C(c1ccc(Cl)cc1)=N[C@@H](CC(=O)N1CCN(C(=O)/C=C/C(=O)c3ccc4c(c3)NC(=O)CO4)CC1)c1nnc(C)n1-2 [Compound 203, (S,E)-1-(4-(2-(4-(4-chlorophenyl)-2,3,9-trimethyl-6H-thieno[3,2-f][1,2,4]triazolo[4,3-a][1,4]diazepin-6-yl)acetyl)piperazin-1-yl)-4-(3-oxo-3,4-dihydro-2H-benzo[b][1,4]oxazin-6-yl)but-2-ene-1,4-dione]

- DC50 [1, 3]: 10 to 100 nM
- DC50 [2, 4]: 10 to 100 nM
SMILES: COc1ccc(C(=O)/C=C/C(=O)N2CC3CCC2CN3C(=O)C[C@@H]2N=C(c3ccc(Cl)cc3)c3c(sc(C)c3C)-n3c(C)nnc32)cc1 (stereo partly drawn) [Compound 226, (E)-1-(5-(2-((S)-4-(4-chlorophenyl)-2,3,9-trimethyl-6H-thieno[3,2-f][1,2,4]triazolo[4,3-a][1,4]diazepin-6-yl)acetyl)-2,5-diazabicyclo[2.2.2]octan-2-yl)-4-(4-methoxyphenyl)but-2-ene-1,4-dione]

- DC50 [1, 3]: < 100 nM
- DC50 [2, 4]: < 100 nM
SMILES: Cc1sc2c(c1C)C(c1ccc(Cl)cc1)=N[C@@H](CC(=O)N1CCN(C(=O)/C=C/C(=O)c3ccc(F)cc3)CC1)c1nnc(C)n1-2 [Compound 202, (S,E)-1-(4-(2-(4-(4-chlorophenyl)-2,3,9-trimethyl-6H-thieno[3,2-f][1,2,4]triazolo[4,3-a][1,4]diazepin-6-yl)acetyl)piperazin-1-yl)-4-(4-fluorophenyl)but-2-ene-1,4-dione]

- DC50 [1, 3]: 10 to 100 nM
- DC50 [2, 4]: 10 to 100 nM
SMILES: COc1ccc(C(=O)/C=C/C(=O)N2CC3CN(C(=O)C[C@@H]4N=C(c5ccc(Cl)cc5)c5c(sc(C)c5C)-n5c(C)nnc54)CC3C2)cc1 (stereo partly drawn) [Compound 230, (E)-1-(5-(2-((S)-4-(4-chlorophenyl)-2,3,9-trimethyl-6H-thieno[3,2-f][1,2,4]triazolo[4,3-a][1,4]diazepin-6-yl)acetyl)hexahydropyrrolo[3,4-c]pyrrol-2(1H)-yl)-4-(4-methoxyphenyl)but-2-ene-1,4-dione]

- DC50 [1, 3]: < 100 nM
- DC50 [2, 4]: < 100 nM
SMILES: Cc1sc2c(c1C)C(c1ccc(Cl)cc1)=N[C@@H](CC(=O)N1CCN(C(=O)/C=C/C(=O)c3ccccc3)CC1)c1nnc(C)n1-2 [Compound 140, (S,E)-1-(4-(2-(4-(4-chlorophenyl)-2,3,9-trimethyl-6H-thieno[3,2-f][1,2,4]triazolo[4,3-a][1,4]diazepin-6-yl)acetyl)piperazin-1-yl)-4-phenylbut-2-ene-1,4-dione]
